# Measurements: patent US20240108602A1, “TREATMENT OF MENTAL DISORDERS” (GH Research Ireland Limited, priority 2022, published 2024)
# “And” between values parts separate entries of the source, which are not always exact repeats. Equal entries are not always repeated.
# System: patients with treatment-resistant major depressive disorder (TRD)
# Experiment: Phase 1/2 clinical trial of inhaled 5-MeO-DMT in TRD patients (12 mg, 18 mg, individualized dosing regimen IDR 6/12/18 mg)
# Experimental: Patients were assigned to different groups. In the context of the present invention, the group who received a single, 12 mg dose and the group who underwent an intra-day individualized dosing regimen (IDR) that allowed for multiple, escalating doses (6 mg, 12 mg and 18 mg) within a single day, driven by the intensity of the patient-reported psychedelic experience are of interest.
# The data gathered include the assessment of the treated patients against several scales including the Montgomery-Åsberg Depression Rating Scale (MADRS) and the Brief Psychiatric Rating Scale (BPRS).
# This trial was designed in two parts. Part A was an open-label, single-arm, single-dose Phase 1 trial with two dose levels (12 mg (n=4) and 18 mg (n=4)). […] The primary endpoint of Part B was to assess the effects on the severity of depression, as assessed by the proportion of patients in remission on day seven after dosing, defined as a MADRS total score of less than or equal to 10.
smiles,measurement,setting,value
COc1ccc2[nH]cc(CCN(C)C)c2c1 [5-MeO-DMT],MADRS Concentration Difficulties improvement (points),"12 mg n=4, 2 h",9
same,MADRS Concentration Difficulties percentage improvement,"12 mg n=4, 2 h",56% and 56.25%
same,MADRS Concentration Difficulties summed score,"12 mg n=4, 2 h",7
same,MADRS Inability to Feel improvement (points),"12 mg n=4, 2 h",7
same,MADRS Inability to Feel percentage improvement,"12 mg n=4, 2 h",44% and 43.75%
same,MADRS Inability to Feel summed score,"12 mg n=4, 2 h",9
same,MADRS Inner Tension improvement (points),"12 mg n=4, 2 h",11
same,MADRS Inner Tension percentage improvement,"12 mg n=4, 2 h",85% and 84.62%
same,MADRS Inner Tension summed score,"12 mg n=4, 2 h",2
same,MADRS Lassitude improvement (points),"12 mg n=4, 2 h",6
same,MADRS Lassitude percentage improvement,"12 mg n=4, 2 h",38% and 37.50%
same,MADRS Lassitude summed score,"12 mg n=4, 2 h",10
same,MADRS Pessimistic Thoughts improvement (points),"12 mg n=4, 2 h",8
same,MADRS Pessimistic Thoughts percentage improvement,"12 mg n=4, 2 h",50%
same,MADRS Pessimistic Thoughts summed score,"12 mg n=4, 2 h",8
same,MADRS Suicidal Thoughts improvement (points),"12 mg n=4, 2 h",5
same,MADRS Suicidal Thoughts percentage improvement,"12 mg n=4, 2 h",63% and 62.50%
same,MADRS Suicidal Thoughts summed score,"12 mg n=4, 2 h",3
same,BPRS Anxiety improvement (points),"12 mg n=4, 3 h",14
same,BPRS Anxiety percentage improvement,"12 mg n=4, 3 h",56%
same,BPRS Anxiety summed score,"12 mg n=4, 3 h",11
same,BPRS Blunted Affect improvement (points),"12 mg n=4, 3 h",3
same,BPRS Blunted Affect percentage improvement,"12 mg n=4, 3 h",27% and 27.27%
same,BPRS Blunted Affect summed score,"12 mg n=4, 3 h",8
same,BPRS Emotional Withdrawal improvement (points),"12 mg n=4, 3 h",2
same,BPRS Emotional Withdrawal percentage improvement,"12 mg n=4, 3 h",15% and 15.38%
same,BPRS Emotional Withdrawal summed score,"12 mg n=4, 3 h",11
same,BPRS Guilt Feelings improvement (points),"12 mg n=4, 3 h",9
same,BPRS Guilt Feelings percentage improvement,"12 mg n=4, 3 h",50%
same,BPRS Guilt Feelings summed score,"12 mg n=4, 3 h",9
same,BPRS Tension improvement (points),"12 mg n=4, 3 h",5
same,BPRS Tension percentage improvement,"12 mg n=4, 3 h",36% and 35.71%
same,BPRS Tension summed score,"12 mg n=4, 3 h",9
same,BPRS Anxiety improvement (points),"12 mg n=4, Day 1",19
same,BPRS Anxiety percentage improvement,"12 mg n=4, Day 1",76%
same,BPRS Anxiety summed score,"12 mg n=4, Day 1",6
same,BPRS Blunted Affect improvement (points),"12 mg n=4, Day 1",5
same,BPRS Blunted Affect percentage improvement,"12 mg n=4, Day 1",45% and 45.45%
same,BPRS Blunted Affect summed score,"12 mg n=4, Day 1",6
same,BPRS Emotional Withdrawal improvement (points),"12 mg n=4, Day 1",5
same,BPRS Emotional Withdrawal percentage improvement,"12 mg n=4, Day 1",38% and 38.46%
same,BPRS Emotional Withdrawal summed score,"12 mg n=4, Day 1",8
same,BPRS Guilt Feelings improvement (points),"12 mg n=4, Day 1",13
same,BPRS Guilt Feelings percentage improvement,"12 mg n=4, Day 1",72% and 72.22%
same,BPRS Guilt Feelings summed score,"12 mg n=4, Day 1",5
same,BPRS Tension improvement (points),"12 mg n=4, Day 1",8
same,BPRS Tension percentage improvement,"12 mg n=4, Day 1",57% and 57.14%
same,BPRS Tension summed score,"12 mg n=4, Day 1",6
same,MADRS Concentration Difficulties improvement (points),"12 mg n=4, Day 1",14
same,MADRS Concentration Difficulties percentage improvement,"12 mg n=4, Day 1",88% and 87.50%
same,MADRS Concentration Difficulties summed score,"12 mg n=4, Day 1",2
same,MADRS Inability to Feel improvement (points),"12 mg n=4, Day 1",15
same,MADRS Inability to Feel percentage improvement,"12 mg n=4, Day 1",94% and 93.75%
same,MADRS Inability to Feel summed score,"12 mg n=4, Day 1",1
same,MADRS Inner Tension improvement (points),"12 mg n=4, Day 1",10
same,MADRS Inner Tension percentage improvement,"12 mg n=4, Day 1",77% and 76.92%
same,MADRS Inner Tension summed score,"12 mg n=4, Day 1",3
same,MADRS Lassitude improvement (points),"12 mg n=4, Day 1",16
same,MADRS Lassitude percentage improvement,"12 mg n=4, Day 1",100%
same,MADRS Lassitude summed score,"12 mg n=4, Day 1",0
same,MADRS Pessimistic Thoughts improvement (points),"12 mg n=4, Day 1",9
same,MADRS Pessimistic Thoughts percentage improvement,"12 mg n=4, Day 1",56% and 56.25%
same,MADRS Pessimistic Thoughts summed score,"12 mg n=4, Day 1",7
same,MADRS Reduced Sleep improvement (points),"12 mg n=4, Day 1",2
same,MADRS Reduced Sleep percentage improvement,"12 mg n=4, Day 1",17% and 16.67%
same,MADRS Reduced Sleep summed score,"12 mg n=4, Day 1",10
same,MADRS Suicidal Thoughts improvement (points),"12 mg n=4, Day 1",3
same,MADRS Suicidal Thoughts percentage improvement,"12 mg n=4, Day 1",38% and 37.50%
same,MADRS Suicidal Thoughts summed score,"12 mg n=4, Day 1",5
same,BPRS Anxiety improvement (points),"12 mg n=4, Day 7",19
same,BPRS Anxiety percentage improvement,"12 mg n=4, Day 7",76%
same,BPRS Anxiety summed score,"12 mg n=4, Day 7",6
same,BPRS Blunted Affect improvement (points),"12 mg n=4, Day 7",6
same,BPRS Blunted Affect percentage improvement,"12 mg n=4, Day 7",55% and 54.55%
same,BPRS Blunted Affect summed score,"12 mg n=4, Day 7",5
same,BPRS Emotional Withdrawal improvement (points),"12 mg n=4, Day 7",7
same,BPRS Emotional Withdrawal percentage improvement,"12 mg n=4, Day 7",54% and 53.85%
same,BPRS Emotional Withdrawal summed score,"12 mg n=4, Day 7",6
same,BPRS Guilt Feelings improvement (points),"12 mg n=4, Day 7",13
same,BPRS Guilt Feelings percentage improvement,"12 mg n=4, Day 7",72% and 72.22%
same,BPRS Guilt Feelings summed score,"12 mg n=4, Day 7",5
same,BPRS Tension improvement (points),"12 mg n=4, Day 7",8
same,BPRS Tension percentage improvement,"12 mg n=4, Day 7",57% and 57.14%
same,BPRS Tension summed score,"12 mg n=4, Day 7",6
same,MADRS Concentration Difficulties improvement (points),"12 mg n=4, Day 7",13
same,MADRS Concentration Difficulties percentage improvement,"12 mg n=4, Day 7",81% and 81.25%
same,MADRS Concentration Difficulties summed score,"12 mg n=4, Day 7",3
same,MADRS Inability to Feel improvement (points),"12 mg n=4, Day 7",15
same,MADRS Inability to Feel percentage improvement,"12 mg n=4, Day 7",94% and 93.75%
same,MADRS Inability to Feel summed score,"12 mg n=4, Day 7",1
same,MADRS Inner Tension improvement (points),"12 mg n=4, Day 7",8
same,MADRS Inner Tension percentage improvement,"12 mg n=4, Day 7",62% and 61.54%
same,MADRS Inner Tension summed score,"12 mg n=4, Day 7",5
same,MADRS Lassitude improvement (points),"12 mg n=4, Day 7",13
same,MADRS Lassitude percentage improvement,"12 mg n=4, Day 7",81% and 81.25%
same,MADRS Lassitude summed score,"12 mg n=4, Day 7",3
same,MADRS Pessimistic Thoughts improvement (points),"12 mg n=4, Day 7",8
same,MADRS Pessimistic Thoughts percentage improvement,"12 mg n=4, Day 7",50%
same,MADRS Pessimistic Thoughts summed score,"12 mg n=4, Day 7",8
same,MADRS Reduced Sleep improvement (points),"12 mg n=4, Day 7",6
same,MADRS Reduced Sleep percentage improvement,"12 mg n=4, Day 7",50%
same,MADRS Reduced Sleep summed score,"12 mg n=4, Day 7",6
same,MADRS Suicidal Thoughts improvement (points),"12 mg n=4, Day 7",1
same,MADRS Suicidal Thoughts percentage improvement,"12 mg n=4, Day 7",13% and 12.50%
same,MADRS Suicidal Thoughts summed score,"12 mg n=4, Day 7",7
same,patients with MADRS remission,"12 mg n=4, day seven",50%
same,mean MADRS change from baseline,"12 mg, day seven",−21.0
same,"mean MADRS change from baseline, percent","12 mg, day seven",−65%
same,further patients with MADRS clinical response,"18 mg n=4, day seven",25%
same,patients with MADRS remission,"18 mg n=4, day seven",25%
same,"mean MADRS change from baseline, percent","18 mg, day seven",−41%
same,patients maintaining remission (fraction),Day 7,⅞
